Test results from publication PMC10980208, “A novel micellular fluorogenic substrate for quantitating the activity of 1-phosphatidylinositol 4,5-bisphosphate phosphodiesterase gamma (PLCγ) enzymes” (PLOS ONE, 2024).

Target: T1, PLCγ2-P522R (Homo sapiens, UniProt P16885, P522R)
T1 construct: gene PLCG2
T1 sequence (P16885 1-1195 P522R): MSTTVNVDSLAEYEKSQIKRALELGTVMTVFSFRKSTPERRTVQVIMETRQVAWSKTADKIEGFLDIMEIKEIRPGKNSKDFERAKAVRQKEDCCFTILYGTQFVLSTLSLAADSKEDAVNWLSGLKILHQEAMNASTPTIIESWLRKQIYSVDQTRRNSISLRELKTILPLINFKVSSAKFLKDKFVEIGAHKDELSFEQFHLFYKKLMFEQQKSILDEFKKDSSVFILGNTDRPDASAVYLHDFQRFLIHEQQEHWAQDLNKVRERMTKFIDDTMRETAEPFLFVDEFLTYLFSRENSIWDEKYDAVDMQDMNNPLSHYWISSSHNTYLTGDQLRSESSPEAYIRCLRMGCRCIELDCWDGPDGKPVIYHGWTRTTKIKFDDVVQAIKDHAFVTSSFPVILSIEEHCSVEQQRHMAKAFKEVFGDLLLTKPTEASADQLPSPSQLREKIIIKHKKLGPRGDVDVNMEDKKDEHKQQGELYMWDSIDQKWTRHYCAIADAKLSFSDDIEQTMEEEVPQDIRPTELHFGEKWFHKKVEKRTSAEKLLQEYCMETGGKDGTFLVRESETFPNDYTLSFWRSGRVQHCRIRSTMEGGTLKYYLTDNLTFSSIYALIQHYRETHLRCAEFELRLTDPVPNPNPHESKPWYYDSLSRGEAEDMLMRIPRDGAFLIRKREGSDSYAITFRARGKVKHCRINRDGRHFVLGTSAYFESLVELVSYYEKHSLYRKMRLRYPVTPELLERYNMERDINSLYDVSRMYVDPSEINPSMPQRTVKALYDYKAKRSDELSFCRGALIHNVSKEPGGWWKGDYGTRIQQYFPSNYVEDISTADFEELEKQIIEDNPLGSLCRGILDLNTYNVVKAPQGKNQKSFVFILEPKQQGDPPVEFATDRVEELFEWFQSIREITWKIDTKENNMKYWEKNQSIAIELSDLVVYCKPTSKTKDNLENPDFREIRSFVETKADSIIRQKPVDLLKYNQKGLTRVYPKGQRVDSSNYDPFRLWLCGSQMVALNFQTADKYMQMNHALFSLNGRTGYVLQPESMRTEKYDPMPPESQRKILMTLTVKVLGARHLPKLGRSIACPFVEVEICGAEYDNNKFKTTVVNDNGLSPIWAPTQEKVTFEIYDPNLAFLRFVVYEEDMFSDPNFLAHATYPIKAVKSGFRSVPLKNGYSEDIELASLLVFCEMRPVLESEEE
Experiment: fluorogenic micelle enzyme assay
Assay type: biochemical

CCCCCCCCCCCCCCCCOc1cc(COC(=O)Nc2ccc3c(C(F)(F)F)cc(=O)oc3c2)ccc1OP(=O)(O)O[C@@H]1[C@H](O)[C@H](O)[C@@H](OP(=O)(O)O)[C@H](OP(=O)(O)O)[C@H]1O [C16CF3-coumarin]
fluorogenic micelle enzyme assay: both PLCγ1-D1665H and PLCγ2-P522R were able to process the C16CF3-coumarin substrate faster than the corresponding wild-type enzymes
